Earlier results on one compound are cited in US11890375B2, “Ophthalmic solution of difluprednate” (SUN PHARMA ADVANCED RESEARCH COMPANY LIMITED, priority 2015, dated 2024).

With `CCCC(=O)O[C@]1(C(=O)COC(C)=O)CC[C@H]2[C@@H]3C[C@H](F)C4=CC(=O)C=C[C@]4(C)[C@@]3(F)[C@@H](O)C[C@@]21C` [Difluprednate], the “solubility in aqueous vehicle” value was “practically insoluble”.
